This note sets out measurements from article doi:10.1101/2024.12.15.628575v1 (biorxiv, 2024).

Like-named read-outs stand apart in the source and are kept apart here.

Assay [1] concerns the target T1, human CPT1a (Homo sapiens, UniProt P50416).
T1 sequence (P50416 2-773): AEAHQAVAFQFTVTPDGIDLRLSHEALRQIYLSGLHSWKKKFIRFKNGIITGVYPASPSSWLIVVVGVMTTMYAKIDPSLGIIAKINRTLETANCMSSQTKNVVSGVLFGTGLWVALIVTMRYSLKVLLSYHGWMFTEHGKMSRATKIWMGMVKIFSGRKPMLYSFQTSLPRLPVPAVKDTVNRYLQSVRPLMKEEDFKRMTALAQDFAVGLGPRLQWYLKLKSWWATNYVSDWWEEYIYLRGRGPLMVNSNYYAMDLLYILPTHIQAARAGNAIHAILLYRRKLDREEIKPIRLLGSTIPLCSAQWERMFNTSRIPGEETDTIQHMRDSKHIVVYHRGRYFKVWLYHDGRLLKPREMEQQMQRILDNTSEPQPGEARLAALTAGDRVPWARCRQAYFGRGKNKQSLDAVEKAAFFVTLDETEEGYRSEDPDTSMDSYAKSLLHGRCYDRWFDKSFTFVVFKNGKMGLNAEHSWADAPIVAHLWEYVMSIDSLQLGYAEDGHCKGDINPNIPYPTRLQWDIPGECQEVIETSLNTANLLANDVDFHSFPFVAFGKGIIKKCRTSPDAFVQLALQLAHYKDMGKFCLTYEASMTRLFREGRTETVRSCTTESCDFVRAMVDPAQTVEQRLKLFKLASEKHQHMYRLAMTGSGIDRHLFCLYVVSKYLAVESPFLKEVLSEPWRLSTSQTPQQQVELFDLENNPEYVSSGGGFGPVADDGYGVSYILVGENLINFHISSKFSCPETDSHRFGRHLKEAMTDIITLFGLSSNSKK
Nature of the assay: DTNB colorimetric CoA release assay, […] nm, transfected Expi293 pellet extract. The assay is classed as biochemical.

In assay [2] the target is T1, human CPT1a. The description is as above. Type of assay: cell-based.

One may read the IC50 as the concentration that gives 50% inhibition.

As for `CN(C)CCCN1c2ccccc2Sc2ccc(Cl)cc21` [chlorpromazine], the IC50 at human CPT1a [1] came to 179 µM.
On the same count and under the same terms, to `O=C(O)[C@@]1(CCCCCCOc2ccc(Cl)cc2)CO1` [etomoxir] belongs 4710 µM.
Consider `C1CCC(C(CC2CCCCN2)C2CCCCC2)CC1` (stereo not drawn) [perhexiline], for which the IC50 on human CPT1a [2] came to 319 µM.
